Results reported in patent US20260042770A1, “NOVEL SULFONES AND THEIR USE AS NEUROPROTECTIVE AND/OR NEURORESTORATIVE AGENTS” (GENECODE, priority 2022, published 2026).

Biological target: T1, GFRα1-RET (Homo sapiens, UniProt P56159)
T1 construct: expressed in transfected cells; host or cells: MG87 murine fibroblasts stably transfected with PathDetect Elk-1, GFRα1 and RET
T1 sequence (P56159 25-429 limits assumed): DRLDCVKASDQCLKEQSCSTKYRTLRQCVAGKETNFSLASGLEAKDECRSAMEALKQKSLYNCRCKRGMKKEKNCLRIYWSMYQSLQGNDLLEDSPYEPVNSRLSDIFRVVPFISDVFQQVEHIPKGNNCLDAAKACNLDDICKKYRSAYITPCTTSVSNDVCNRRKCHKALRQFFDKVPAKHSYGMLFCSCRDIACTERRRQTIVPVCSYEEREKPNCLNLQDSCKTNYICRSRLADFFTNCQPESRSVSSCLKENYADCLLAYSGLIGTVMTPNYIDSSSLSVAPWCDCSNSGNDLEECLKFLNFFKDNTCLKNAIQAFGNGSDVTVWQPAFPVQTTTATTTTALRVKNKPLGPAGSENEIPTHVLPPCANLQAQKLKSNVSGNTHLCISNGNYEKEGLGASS
Experiment: Elk1 luciferase reporter-gene assay in cells expressing GFRα1-RET
Format: cell-based
Details: agonist/activator activity of Elk1 signaling; MG87 murine fibroblast stably transfected with PathDetect Elk-1, GFRα1 and RET; 6 concentrations, duplicate, two independent runs
Experimental: For EC50 determination, a dose-response test was performed using 6 concentrations of each tested compound. Dose-response curves were fitted using the sigmoidal dose-response (variable slope) analysis in GraphPad Prism program (Graph Pad Inc) and EC50 of agonist/activator activity was calculated. Dose-response experiments were all performed in duplicate, two times independently.

SMILES | EC50
COc1ccc(S(=O)(=O)C2CCCC2)cc1N1[C@@H]2CC[C@H]1CN(C(=O)c1ccc(F)cc1Cl)C2 [Cpd 004, (2-chloro-4-fluoro-phenyl)-[(1S,5R)-8-(5-cyclopentylsulfonyl-2-methoxy-phenyl)-3,8-diazabicyclo[3.2.1]octan-3-yl]methanone] | 1 to 10 µM
CCC(CC)CS(=O)(=O)c1ccc(OC)c(N2[C@@H]3CC[C@H]2CN(C(=O)c2ccc(F)cc2Cl)C3)c1 [Cpd 021, (2-chloro-4-fluoro-phenyl)-[(1S,5R)-8-[5-(2-ethylbutylsulfonyl)-2-methoxy-phenyl]-3,8-diazabicyclo[3.2.1]octan-3-yl]methanone] | 1 to 10 µM
COc1ccc(S(=O)(=O)C2CCN(CCc3ccc(F)cc3)CC2)cc1N1[C@@H]2CC[C@H]1CN(C(=O)c1ccc(F)cc1Cl)C2 [Cpd 029, (2-chloro-4-fluoro-phenyl)-[(1S,5R)-8-[5-[[1-[2-(4-fluorophenyl)ethyl]-4-piperidyl]sulfonyl]-2-methoxy-phenyl]-3,8-diazabicyclo[3.2.1]octan-3-yl]methanone] | 1 to 10 µM
COc1ccc(S(=O)(=O)C(C)C)cc1N1CCN(C(=O)c2ccc(F)cc2Cl)CC1 [Cpd 008, (2-chloro-4-fluoro-phenyl)-[4-(5-isopropylsulfonyl-2-methoxy-phenyl)piperazin-1-yl]methanone] | 10 to 50 µM
COc1ccc(S(=O)(=O)CC(C)(C)C)cc1N1[C@@H]2CC[C@H]1CN(C(=O)c1ccc(F)cc1Cl)C2 [Cpd 015, (2-chloro-4-fluoro-phenyl)-[(1S,5R)-8-[5-(2,2-dimethylpropylsulfonyl)-2-methoxy-phenyl]-3,8-diazabicyclo[3.2.1]octan-3-yl]methanone] | 1 to 10 µM
O=C(c1ccc(F)cc1Cl)N1C[C@H]2CC[C@@H](C1)N2c1cc(S(=O)(=O)C2CCN(c3ccccc3)CC2)ccc1O [Cpd 030, (2-chloro-4-fluoro-phenyl)-[(1S,5R)-8-[2-hydroxy-5-[(1-phenyl-4-piperidyl)sulfonyl]phenyl]-3,8-diazabicyclo[3.2.1]octan-3-yl]methanone] | < 1 µM
COc1ccc(S(=O)(=O)C(C)CCCc2ccccc2)cc1N1C2CCC1CN(C(=O)c1ccc(F)cc1Cl)C2 (racemic) [Cpd 024, (2-chloro-4-fluoro-phenyl)-[(1S,5R)-8-[2-methoxy-5-[(1SR)-1-methyl-4-phenyl-butyl]sulfonyl-phenyl]-3,8-diazabicyclo[3.2.1]octan-3-yl]methanone] | 1 to 10 µM
COc1ccc(S(=O)(=O)Cc2ccccc2)cc1N1[C@@H]2CC[C@H]1CN(C(=O)c1ccc(F)cc1Cl)C2 [Cpd 014, [(1S,5R)-8-(5-benzylsulfonyl-2-methoxy-phenyl)-3,8-diazabicyclo[3.2.1]octan-3-yl]-(2-chloro-4-fluoro-phenyl)methanone] | 10 to 50 µM
COc1ccc(S(=O)(=O)C(C)CCc2ccccc2)cc1N1C2CCC1CN(C(=O)c1ccc(F)cc1Cl)C2 (racemic) [Cpd 023, (2-chloro-4-fluoro-phenyl)-[(1S,5R)-8-[2-methoxy-5-[(1SR)-1-methyl-3-phenyl-propyl]sulfonyl-phenyl]-3,8-diazabicyclo[3.2.1]octan-3-yl]methanone] | 1 to 10 µM
CCCCS(=O)(=O)c1ccc(OC)c(N2[C@@H]3CC[C@H]2CN(C(=O)c2ccc(F)cc2Cl)C3)c1 [Cpd 020, [(1S,5R)-8-(5-butylsulfonyl-2-methoxy-phenyl)-3,8-diazabicyclo[3.2.1]octan-3-yl]-(2-chloro-4-fluoro-phenyl)methanone] | 1 to 10 µM
CCCC(C)S(=O)(=O)c1ccc(OC)c(N2CCN(C(=O)c3ccc(F)cc3Cl)CC2C)c1 (racemic) [Cpd 016] | 1 to 10 µM
COc1ccc(S(=O)(=O)CC2CCC2)cc1N1CCN(C(=O)c2ccc(F)cc2Cl)CC1 [Cpd 012, (2-chloro-4-fluoro-phenyl)-[4-[5-(cyclobutylmethylsulfonyl)-2-methoxy-phenyl]piperazin-1-yl]methanone] | 10 to 50 µM
COc1ccc(S(=O)(=O)CC2CCCC2)cc1N1CCN(C(=O)c2ccc(F)cc2Cl)CC1 [Cpd 013, (2-chloro-4-fluoro-phenyl)-[4-[5-(cyclopentylmethylsulfonyl)-2-methoxy-phenyl]piperazin-1-yl]methanone] | 1 to 10 µM
CCC(CC)S(=O)(=O)c1ccc(OC)c(N2CCN(C(=O)c3ccc(F)cc3Cl)CC2C)c1 (racemic) [Cpd 007, (2-chloro-4-fluoro-phenyl)-[rac-(3S)-4-[5-(1-ethylpropylsulfonyl)-2-methoxy-phenyl]-3-methyl-piperazin-1-yl]methanone] | 1 to 10 µM
CCC(C)S(=O)(=O)c1ccc(OC)c(N2C3CCC2CN(C(=O)c2ccc(F)cc2Cl)C3)c1 (racemic) [Cpd 022, (2-chloro-4-fluoro-phenyl)-[(1S,5R)-8-[2-methoxy-5-[(1SR)-1-methylpropyl]sulfonyl-phenyl]-3,8-diazabicyclo[3.2.1]octan-3-yl]methanone] | 1 to 10 µM
CC(C)(C)CS(=O)(=O)c1cc(Cl)c(O)c(N2[C@@H]3CC[C@H]2CN(C(=O)c2ccc(F)cc2Cl)C3)c1 [Cpd 033, [(1S,5R)-8-[3-chloro-5-(2,2-dimethylpropylsulfonyl)-2-hydroxy-phenyl]-3,8-diazabicyclo[3.2.1]octan-3-yl]-(2-chloro-4-fluoro-phenyl)methanone] | < 1 µM
COc1ccc(S(=O)(=O)C2CCCCC2)cc1N1CCN(C(=O)c2ccc(F)cc2C(F)(F)F)CC1 [Cpd 003, [4-(5-cyclohexylsulfonyl-2-methoxy-phenyl)piperazin-1-yl]-[4-fluoro-2-(trifluoromethyl)phenyl]methanone] | 10 to 50 µM
COc1ccc(S(=O)(=O)CCC2CCCC2)cc1N1[C@@H]2CC[C@H]1CN(C(=O)c1ccc(F)cc1Cl)C2 [Cpd 019, (2-chloro-4-fluoro-phenyl)-[(1S,5R)-8-[5-(2-cyclopentylethylsulfonyl)-2-methoxy-phenyl]-3,8-diazabicyclo[3.2.1]octan-3-yl]methanone] | 1 to 10 µM
O=C(c1ccc(F)cc1Cl)N1C[C@H]2CC[C@@H](C1)N2c1cc(S(=O)(=O)C2CCN(CCc3ccccc3)CC2)ccc1O [Cpd 031, (2-chloro-4-fluoro-phenyl)-[(1S,5R)-8-[2-hydroxy-5-[[1-(2-phenylethyl)-4-piperidyl]sulfonyl]phenyl]-3,8-diazabicyclo[3.2.1]octan-3-yl]methanone] | 1 to 10 µM
COc1ccc(S(=O)(=O)C2CCCC2)cc1N1CCN(C(=O)c2ccc(F)cc2C(F)(F)F)CC1 [Cpd 002, [4-(5-cyclopentylsulfonyl-2-methoxy-phenyl)piperazin-1-yl]-[4-fluoro-2-(trifluoromethyl)phenyl]methanone] | 10 to 50 µM
COc1ccc(S(=O)(=O)C2CCCC2)cc1N1CCN(C(=O)c2ccc(F)cc2Cl)CC1C (racemic) [Cpd 006, (2-chloro-4-fluoro-phenyl)-[rac-(3S)-4-(5-cyclopentylsulfonyl-2-methoxy-phenyl)-3-methyl-piperazin-1-yl]methanone] | 1 to 10 µM
COc1ccc(S(=O)(=O)C2COC2)cc1N1CCN(C(=O)c2ccc(F)cc2Cl)CC1 [Cpd 011, (2-chloro-4-fluoro-phenyl)-[4-[2-methoxy-5-(oxetan-3-ylsulfonyl)phenyl]piperazin-1-yl]methanone] | 10 to 50 µM
Cc1c(Cl)cc(S(=O)(=O)CC(C)(C)C)cc1N1[C@@H]2CC[C@H]1CN(C(=O)c1ccc(F)cc1Cl)C2 [Cpd 036, [(1S,5R)-8-[3-chloro-5-(2,2-dimethylpropylsulfonyl)-2-methyl-phenyl]-3,8-diazabicyclo[3.2.1]octan-3-yl]-(2-chloro-4-fluoro-phenyl)methanone] | < 1 µM
CC(C)(C)CS(=O)(=O)c1cc(Cl)c(OCCO)c(N2[C@@H]3CC[C@H]2CN(C(=O)c2ccc(F)cc2Cl)C3)c1 [Cpd 034, [(1S,5R)-8-[3-chloro-5-(2,2-dimethylpropylsulfonyl)-2-(2-hydroxyethoxy)phenyl]-3,8-diazabicyclo[3.2.1]octan-3-yl]-(2-chloro-4-fluoro-phenyl)methanone] | 1 to 10 µM
COc1ccc(S(=O)(=O)CC2CC2)cc1N1CCN(C(=O)c2ccc(F)cc2Cl)CC1 [Cpd 009, (2-chloro-4-fluoro-phenyl)-[4-[5-(cyclopropylmethylsulfonyl)-2-methoxy-phenyl]piperazin-1-yl]methanone] | 1 to 10 µM
COc1ccc(S(=O)(=O)CC(C)C)cc1N1CCN(C(=O)c2ccc(F)cc2C(F)(F)F)CC1 [Cpd 018, [4-fluoro-2-(trifluoromethyl)phenyl]-[4-(5-isobutylsulfonyl-2-methoxy-phenyl)piperazin-1-yl]methanone] | 10 to 50 µM
COc1ccc(S(=O)(=O)C2CCC2)cc1N1[C@@H]2CC[C@H]1CN(C(=O)c1ccc(F)cc1Cl)C2 [Cpd 010, (2-chloro-4-fluoro-phenyl)-[(1S,5R)-8-(5-cyclobutylsulfonyl-2-methoxy-phenyl)-3,8-diazabicyclo[3.2.1]octan-3-yl]methanone] | 1 to 10 µM
Cc1cc(S(=O)(=O)CC(C)(C)C)cc(N2[C@@H]3CC[C@H]2CN(C(=O)c2ccc(F)cc2Cl)C3)c1O [Cpd 032, (2-chloro-4-fluoro-phenyl)-[(1S,5R)-8-[5-(2,2-dimethylpropylsulfonyl)-2-hydroxy-3-methyl-phenyl]-3,8-diazabicyclo[3.2.1]octan-3-yl]methanone] | 1 to 10 µM
